{
  "source": "patent US6884906B2",
  "about": "“Menthyl half acid ester derivatives, processes for preparing same, and uses thereof for their cooling/refreshing effect in consumable materials” (International Flavors & Fragrances Inc., priority 2003, dated 2005)",
  "type_in_all_cases": "in vivo",
  "key": {"[1]": {"system": "oral cavity", "assay": "Flavor and sensory characteristics at use level of 25 ppm in water"}, "[2]": {"system": "oral cavity", "assay": "Sensory evaluation in cherry-flavored hard candy", "details": "0.2 grams added to recipe yielding 200 grams of hard candy; versus control candy", "description": "The following formulation was prepared: […]\nThe above formulation was added to a stainless steel pot. With constant mixing, the formulation temperature was raised to 295° F. The pot was then removed from the heat, and 0.3 grams of cherry flavor containing the ingredients in equal amounts benzaldehyde, tolyl aldehyde, ethyl acetate, maltol, Davana oil and methyl heptinyl carbonate and 1.2 grams of citric acid was added. The resulting liquid candy was then deposited into molds, and the molds containing the liquid candy were cooled to room temperature, yielding 200 grams of finished hard candy. […] A second candy sample was prepared using the above recipe modified by the addition of 0.2 grams of menthyl succinamide prepared according to the procedure of Example I (A)."}, "[3]": {"system": "oral cavity", "assay": "Sensory evaluation in fruity citrus chewing gum", "details": "1 part by weight added to gum of 100 parts chicle, 4 parts flavor, 300 parts sucrose, 100 parts corn syrup; versus control gum", "description": "100 parts by weight of chicle were mixed with 4 parts by weight of a fruity citrus gum flavor which was a blend of lemon oil, ethyl butyrate, ethyl acetate, benzaldehyde, citral and alpha ionone in equal portions. To the resulting mixture, 300 parts by weight of sucrose and 100 parts by weight of corn syrup were added. Mixing was effected in a ribbon blender with jacketed sidewalls, manufactured by Baker Perkins Co. The resultant chewing gum blend was then manufactured into strips 1 inch in width and 0.1 inches in thickness. These strips were cut into lengths of 3 inches each. […] A second gum sample was prepared using the above recipe with the addition of 1 part by weight of menthyl N,N-dimethyl succinamide, prepared according to Example I(C)."}},
  "data": [
    {"molecule": "CC(C)[C@@H]1CC[C@@H](C)C[C@H]1OC(=O)CCC(=O)NCCO", "note": "[Example I(E), Butanoic acid, 4-(2-hydroxyethyl)amino-4-oxo, (5-methyl-2-(1-methylethyl)cyclohexyl) ester, (1R-(1α,2β,5α))-]", "values": [
      {"measurement": "Cooling Duration", "setting": "[1]", "result": 15, "unit": "min"},
      {"measurement": "Onset Time", "setting": "[1]", "result": 11, "unit": "s"}
    ]},
    {"molecule": "Pentanoic acid, 4-methylamino-4-oxo, (5-methyl-2-(1-methylethyl)cyclohexyl) ester, (1R-(1α,2β,5α))- [Example I(G)]", "values": [
      {"measurement": "Cooling Duration", "setting": "[1]", "result": 5, "unit": "min"},
      {"measurement": "Onset Time", "setting": "[1]", "result": 20, "unit": "s"}
    ]},
    {"molecule": "CCNC(=O)CCC(=O)O[C@@H]1C[C@H](C)CC[C@H]1C(C)C", "note": "[I(D), Butanoic acid, 4-ethylamino-4-oxo, (5-methyl-2-(1-methylethyl)cyclohexyl)ester, (1R-(1α,2β,5α))-]", "values": [
      {"measurement": "Cooling Duration", "setting": "[1]", "result": 7, "unit": "min"},
      {"measurement": "Onset Time", "setting": "[1]", "result": 35, "unit": "s"}
    ]},
    {"molecule": "CC(C)[C@@H]1CC[C@@H](C)C[C@H]1OC(=O)CCCCC(=O)O", "note": "[Example I(I), Hexanedioic acid, mono(5-methyl-2-(1-methylethyl)cyclohexyl) ester, (1R-(1α,2β,5α))-]", "values": [
      {"measurement": "Cooling Duration", "setting": "[1]", "result": 10.5, "unit": "min"},
      {"measurement": "Onset Time", "setting": "[1]", "result": 34, "unit": "s"}
    ]},
    {"molecule": "CC(C)[C@@H]1CC[C@@H](C)C[C@H]1OC(=O)CCC(N)=O", "note": "[Example I(A), Butanoic acid, 4-amino-4-oxo, (5-methyl-2-(1-methylethyl)cyclohexyl)ester, (1R-(1α,2β,5α))-]", "values": [
      {"measurement": "Cooling Duration", "setting": "[1]", "result": 7.5, "unit": "min"},
      {"measurement": "Onset Time", "setting": "[1]", "result": "8 to 25", "unit": "s"},
      {"measurement": "cooling effect in hard candy", "setting": "[2]", "result": "moderately strong and substantive cooling effect"}
    ]},
    {"molecule": "CC(C)[C@@H]1CC[C@@H](C)C[C@H]1OC(=O)CCC(=O)N(C)C", "note": "[Example I(C), Butanoic acid, 4-dimethylamino-4-oxo, (5-methyl-2-(1-methylethyl)cyclohexyl)ester, (1R-(1α,2β,5α))-]", "values": [
      {"measurement": "Cooling Duration", "setting": "[1]", "result": 11.25, "unit": "min"},
      {"measurement": "Onset Time", "setting": "[1]", "result": 25, "unit": "s"},
      {"measurement": "cooling effect in chewing gum", "setting": "[3]", "result": "pleasant and substantive cooling effect on the tongue and roof of the mouth"}
    ]},
    {"molecule": "CNC(=O)CCC(=O)O[C@@H]1C[C@H](C)CC[C@H]1C(C)C", "note": "[Example I(B), Butanoic acid, 4-methylamino-4-oxo, (5-methyl-2-(1-methylethyl)cyclohexyl)ester, (1R-(1α,2β,5α))]", "values": [
      {"measurement": "Cooling Duration", "setting": "[1]", "result": 7, "unit": "min"},
      {"measurement": "Onset Time", "setting": "[1]", "result": "15 to 25", "unit": "s"}
    ]}
  ]
}
